Read-outs that look alike come from different tables or passages of the source.
Assays:
[1] = test system: Caco-2 cell; experiment: Caco-2 bidirectional permeability assay; type: in vitro ADME; details: Caco-2
Experimental: (§1) Cell membrane permeability is an important drug characteristic. Typically, a drug candidate is test in a Caco-2 cell transmembrane permeability assay. Compound 3 was tested in a bidirectional permeability assay, and the results are shown in Table V. The data are consistent with the representative compound having good cellular membrane permeability, and the efflux ratio is consistent with active efflux of the drug from cell. The study was conducted using standard techniques known in the art.

[2] = Caco-2 bidirectional permeability assay; type: in vitro ADME; details: human
Experimental: as §1

[3] = biological target: ERBB4/HER4 (Homo sapiens, UniProt Q15303); experiment: Specific kinase IC50 assay; type: biochemical; details: 1 μM ATP, 10-dose, duplicate
Sequence of ERBB4/HER4 (Q15303 26-1308): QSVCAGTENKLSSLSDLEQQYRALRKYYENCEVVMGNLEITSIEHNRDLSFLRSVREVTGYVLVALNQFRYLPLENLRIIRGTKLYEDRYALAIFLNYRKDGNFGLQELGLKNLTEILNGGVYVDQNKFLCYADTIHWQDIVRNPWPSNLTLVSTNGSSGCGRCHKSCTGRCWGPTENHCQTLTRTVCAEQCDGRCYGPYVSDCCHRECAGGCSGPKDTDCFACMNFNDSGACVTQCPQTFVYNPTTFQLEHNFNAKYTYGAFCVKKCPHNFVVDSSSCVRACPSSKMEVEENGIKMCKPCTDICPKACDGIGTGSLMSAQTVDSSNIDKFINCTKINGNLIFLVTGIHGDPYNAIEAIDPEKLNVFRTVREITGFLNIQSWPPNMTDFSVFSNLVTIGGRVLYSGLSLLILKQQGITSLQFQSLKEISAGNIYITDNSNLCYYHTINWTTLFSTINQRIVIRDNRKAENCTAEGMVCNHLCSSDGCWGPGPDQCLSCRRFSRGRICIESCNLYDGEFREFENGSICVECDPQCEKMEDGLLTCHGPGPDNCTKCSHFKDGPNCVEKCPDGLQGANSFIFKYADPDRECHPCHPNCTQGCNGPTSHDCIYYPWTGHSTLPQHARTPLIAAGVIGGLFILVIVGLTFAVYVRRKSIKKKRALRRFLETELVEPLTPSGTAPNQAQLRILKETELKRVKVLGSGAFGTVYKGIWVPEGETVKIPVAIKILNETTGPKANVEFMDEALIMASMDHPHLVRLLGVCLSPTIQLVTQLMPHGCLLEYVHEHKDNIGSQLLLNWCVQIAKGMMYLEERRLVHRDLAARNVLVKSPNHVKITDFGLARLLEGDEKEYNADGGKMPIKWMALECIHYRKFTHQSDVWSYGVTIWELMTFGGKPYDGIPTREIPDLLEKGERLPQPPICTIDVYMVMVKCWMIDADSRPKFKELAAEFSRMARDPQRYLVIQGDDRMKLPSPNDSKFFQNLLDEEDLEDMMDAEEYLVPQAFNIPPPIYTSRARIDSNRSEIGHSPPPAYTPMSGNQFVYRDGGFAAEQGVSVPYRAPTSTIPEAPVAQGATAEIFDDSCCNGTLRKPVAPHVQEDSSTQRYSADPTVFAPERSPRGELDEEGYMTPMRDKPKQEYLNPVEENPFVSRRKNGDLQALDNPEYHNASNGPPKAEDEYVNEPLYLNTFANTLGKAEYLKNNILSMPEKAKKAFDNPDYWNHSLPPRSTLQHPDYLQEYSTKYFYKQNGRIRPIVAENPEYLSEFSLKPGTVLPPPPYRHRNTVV
Experimental: (§2) The assays were carried out in the presence of 1 μM ATP and were conducted in a 10-dose format in duplicate with three-fold serial dilutions starting at 10 μM.

[4] = biological target: T1, JAK3 (Homo sapiens, UniProt P52333); experiment: Specific kinase IC50 assay; type: biochemical; details: 1 μM ATP, 10-dose, duplicate
T1 sequence (P52333 1-1124): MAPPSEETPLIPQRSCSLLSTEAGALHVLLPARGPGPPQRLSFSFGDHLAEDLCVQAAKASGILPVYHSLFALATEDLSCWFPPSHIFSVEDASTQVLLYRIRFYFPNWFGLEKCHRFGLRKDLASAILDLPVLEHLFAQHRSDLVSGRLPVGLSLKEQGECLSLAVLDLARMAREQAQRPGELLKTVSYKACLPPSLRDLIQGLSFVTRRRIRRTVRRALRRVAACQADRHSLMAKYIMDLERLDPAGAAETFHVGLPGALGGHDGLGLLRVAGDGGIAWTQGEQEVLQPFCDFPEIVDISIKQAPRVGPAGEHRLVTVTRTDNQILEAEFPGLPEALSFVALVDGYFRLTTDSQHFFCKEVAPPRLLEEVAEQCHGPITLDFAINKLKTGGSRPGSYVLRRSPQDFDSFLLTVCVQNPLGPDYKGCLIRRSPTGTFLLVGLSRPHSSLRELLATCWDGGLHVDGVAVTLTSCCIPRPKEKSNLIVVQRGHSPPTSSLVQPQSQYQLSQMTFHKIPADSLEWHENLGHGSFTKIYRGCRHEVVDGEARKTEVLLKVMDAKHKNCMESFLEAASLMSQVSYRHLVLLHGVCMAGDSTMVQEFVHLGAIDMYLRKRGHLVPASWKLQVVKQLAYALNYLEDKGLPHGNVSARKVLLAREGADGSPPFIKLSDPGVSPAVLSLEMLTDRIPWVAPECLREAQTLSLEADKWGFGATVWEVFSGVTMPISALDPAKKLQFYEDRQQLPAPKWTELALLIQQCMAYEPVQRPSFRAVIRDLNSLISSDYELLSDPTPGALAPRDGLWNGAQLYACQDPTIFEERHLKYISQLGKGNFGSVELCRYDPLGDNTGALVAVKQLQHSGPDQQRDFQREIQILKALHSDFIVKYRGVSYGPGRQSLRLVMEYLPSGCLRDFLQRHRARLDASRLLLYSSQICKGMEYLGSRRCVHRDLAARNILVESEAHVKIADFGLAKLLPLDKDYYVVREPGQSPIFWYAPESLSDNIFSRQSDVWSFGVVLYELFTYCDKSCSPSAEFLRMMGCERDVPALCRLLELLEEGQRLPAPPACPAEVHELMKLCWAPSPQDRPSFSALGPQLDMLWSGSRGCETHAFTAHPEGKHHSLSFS
Experimental: as §2

[5] = biological target: T2, BMX/ETK (Homo sapiens, UniProt P51813); experiment: Specific kinase IC50 assay; type: biochemical; details: 1 μM ATP, 10-dose, duplicate
T2 sequence (P51813 1-675): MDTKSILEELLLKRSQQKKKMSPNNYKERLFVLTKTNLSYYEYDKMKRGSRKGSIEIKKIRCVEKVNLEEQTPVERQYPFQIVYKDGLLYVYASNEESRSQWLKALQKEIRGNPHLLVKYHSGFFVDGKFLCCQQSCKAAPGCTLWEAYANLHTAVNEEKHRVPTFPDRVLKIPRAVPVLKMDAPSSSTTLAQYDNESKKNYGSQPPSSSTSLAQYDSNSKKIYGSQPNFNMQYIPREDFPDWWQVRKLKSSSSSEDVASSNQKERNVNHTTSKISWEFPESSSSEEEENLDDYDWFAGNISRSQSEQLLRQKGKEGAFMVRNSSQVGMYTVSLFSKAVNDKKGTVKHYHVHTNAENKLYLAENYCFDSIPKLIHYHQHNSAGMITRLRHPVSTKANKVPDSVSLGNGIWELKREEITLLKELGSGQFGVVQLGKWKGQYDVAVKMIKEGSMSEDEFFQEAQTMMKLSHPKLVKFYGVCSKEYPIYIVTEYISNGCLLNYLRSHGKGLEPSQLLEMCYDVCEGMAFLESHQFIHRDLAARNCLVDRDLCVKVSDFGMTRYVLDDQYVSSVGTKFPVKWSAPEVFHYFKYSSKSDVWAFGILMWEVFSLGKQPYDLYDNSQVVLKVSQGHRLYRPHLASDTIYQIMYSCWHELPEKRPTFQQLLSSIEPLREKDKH
Experimental: as §2

[6] = biological target: EGFR (T790M) (Homo sapiens, UniProt P00533, T790M); experiment: Specific kinase IC50 assay; type: biochemical; details: 1 μM ATP, 10-dose, duplicate
Sequence of EGFR (T790M) (P00533 25-1210 T790M, species assumed): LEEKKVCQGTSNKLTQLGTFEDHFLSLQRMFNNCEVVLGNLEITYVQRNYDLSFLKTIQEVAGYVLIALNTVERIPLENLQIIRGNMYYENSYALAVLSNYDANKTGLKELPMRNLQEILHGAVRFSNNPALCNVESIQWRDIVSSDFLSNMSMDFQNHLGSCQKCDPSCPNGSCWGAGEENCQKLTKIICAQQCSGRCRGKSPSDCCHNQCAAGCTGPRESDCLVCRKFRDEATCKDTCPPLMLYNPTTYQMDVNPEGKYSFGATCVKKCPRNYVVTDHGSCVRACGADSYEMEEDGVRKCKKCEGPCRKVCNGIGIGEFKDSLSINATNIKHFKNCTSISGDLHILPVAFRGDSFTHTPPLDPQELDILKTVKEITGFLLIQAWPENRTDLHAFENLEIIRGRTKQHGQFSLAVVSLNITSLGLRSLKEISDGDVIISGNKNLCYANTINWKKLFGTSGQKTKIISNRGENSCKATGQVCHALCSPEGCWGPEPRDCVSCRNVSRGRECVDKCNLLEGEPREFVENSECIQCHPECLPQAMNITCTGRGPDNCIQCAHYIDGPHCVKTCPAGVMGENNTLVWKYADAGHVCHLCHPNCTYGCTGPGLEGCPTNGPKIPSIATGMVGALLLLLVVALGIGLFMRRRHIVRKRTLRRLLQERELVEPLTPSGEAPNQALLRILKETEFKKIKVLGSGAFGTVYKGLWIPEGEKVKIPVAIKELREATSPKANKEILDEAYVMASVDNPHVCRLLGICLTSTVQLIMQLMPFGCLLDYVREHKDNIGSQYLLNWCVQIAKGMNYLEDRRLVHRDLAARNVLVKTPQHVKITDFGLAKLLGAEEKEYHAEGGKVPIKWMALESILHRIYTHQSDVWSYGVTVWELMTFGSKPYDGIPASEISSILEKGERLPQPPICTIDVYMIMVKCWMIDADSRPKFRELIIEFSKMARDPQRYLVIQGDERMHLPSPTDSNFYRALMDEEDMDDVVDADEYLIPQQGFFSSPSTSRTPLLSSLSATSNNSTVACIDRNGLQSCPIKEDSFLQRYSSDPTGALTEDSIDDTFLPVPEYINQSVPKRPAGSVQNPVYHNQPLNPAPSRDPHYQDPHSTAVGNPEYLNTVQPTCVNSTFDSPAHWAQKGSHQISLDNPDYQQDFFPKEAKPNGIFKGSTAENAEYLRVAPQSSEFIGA
Experimental: as §2

[7] = biological target: T3, TEC (Homo sapiens, UniProt P42680); experiment: Specific kinase IC50 assay; type: biochemical; details: 1 μM ATP, 10-dose, duplicate
T3 sequence (P42680 1-631): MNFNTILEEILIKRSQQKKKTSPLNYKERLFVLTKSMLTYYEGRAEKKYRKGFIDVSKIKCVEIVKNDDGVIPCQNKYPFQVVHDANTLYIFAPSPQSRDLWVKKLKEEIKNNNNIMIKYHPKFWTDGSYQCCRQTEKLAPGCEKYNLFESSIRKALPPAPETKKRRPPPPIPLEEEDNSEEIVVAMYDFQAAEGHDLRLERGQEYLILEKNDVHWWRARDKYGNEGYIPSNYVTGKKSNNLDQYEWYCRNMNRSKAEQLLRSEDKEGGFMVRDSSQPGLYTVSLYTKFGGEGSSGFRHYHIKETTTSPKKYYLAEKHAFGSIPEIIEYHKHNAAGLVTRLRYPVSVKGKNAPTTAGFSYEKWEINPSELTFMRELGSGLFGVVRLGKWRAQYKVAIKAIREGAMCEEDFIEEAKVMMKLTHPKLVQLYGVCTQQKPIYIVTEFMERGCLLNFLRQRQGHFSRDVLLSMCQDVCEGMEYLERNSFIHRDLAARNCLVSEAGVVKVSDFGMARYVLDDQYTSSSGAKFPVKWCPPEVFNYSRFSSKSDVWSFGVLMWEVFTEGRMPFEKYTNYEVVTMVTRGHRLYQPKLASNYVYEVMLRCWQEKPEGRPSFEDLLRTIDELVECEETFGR
Experimental: as §2

- Permeability Classification [1]: High
- Significant Efflux [1]: Yes
- efflux ratio ([2]; Caco-2): 6
- recovery ([2]; Caco-2, Caco-2, A-B, read-out: % Recovery A-B): 41%
- recovery ([2]; Caco-2, Caco-2, B-A, read-out: % Recovery B-A): 84%
- Papp A→B ([2]; Caco-2, A-B): 5.81 ×10⁻⁶ cm/s
- Papp B→A ([2]; Caco-2, B-A): 34.9 ×10⁻⁶ cm/s
- IC50 [3]: 17.5 nM
- IC50 [4]: 66.6 nM
- IC50 [5]: 9.26 nM
- IC50 [6]: 979 nM
- IC50 [7]: 50.2 nM
SMILES: C=CC(=O)Nc1cccc(-c2nc(Nc3cccc(N4CCOCC4)c3)nc3[nH]ncc23)c1 [Compound 3, N-(3-(6-((3-morpholinophenyl)amino)-1H-pyrazolo[3,4-d]pyrimidin-4-yl)phenyl)acrylamide]
